Laboratory results: patent US10196685B2, “Methods and systems for delivering process gases to critical process applications” (RASIRC, INC., priority 2014, dated 2019)
Values joined by “and” are separate entries in the source; they are usually repeats but may differ in a detail not shown here. Identical values can stand only once. Like-named read-outs stand apart in the source and are kept apart here.

How the values were obtained:
E. coli [1] = settings: 1.7×10^7 cfu E. coli per spot; gas-phase H2O2 505 ppm, H2O 2122 ppm, 60 minutes, 25° C.
Description: The CDA gas pressure was maintained at 25 psig with the pressure regulator. A 0.01 micron filter removed particulates from the gas stream. The MFCs controlled the flow of the carrier gas streams and the dilution gas stream. […] The water temperature was used to control the output of the humidifier. The valves (V-1, V-2, and V-3) were used to send either the dry CDA gas stream, the RHS gas stream, and/or SGD gas stream through the furnace or out to vent. […] TC-3 and TC-4 were used to measure the gas temperature downstream of the SGD. The furnace was used to keep the bacterial samples at temperature to prevent condensation. TC-5 was used to measure the temperature in the quartz furnace. TC-6 was used to measure the gas temperature downstream of the furnace. A pressure gauge (PG-1) was used to monitor the pressure in the furnace. A Teledyne Prototype Analyzer was used to determine stability of the peroxide gas and its temperature was kept at 120° C. […] The boxed sections show the individual heat traced control zones for this experiment.
(§1) The initial test manifold was set to the following temperatures: • Zone 1=72° C. (Outlet temperature of SGD) • Zone 3=90° C.
The dilution gas flow rate was set to 5 slm, the RHS carrier gas to 180 sccm, and the SGD carrier gas flow to 1 slm. The RHS was then set to a 35° C. dew point, and the SGD to 30° C., running both gas streams to vent. […]

bovine genomic DNA = settings: H2O2 505 ppm, 5 hours; for Average Decrease %: three replicates
Experimental: as §1
The dilution gas flow rate was set to 5 slm, the RHS carrier gas to 180 sccm, and the SGD carrier gas flow to 1 slm. The RHS was then set to a 35° C. dew point, and the SGD to 30° C., running both gas streams to vent. The furnace and the heat-traced line temperatures were adjusted to achieve the desired gas temperatures. The SGD and RHS systems were allowed to stabilize. Samples were treated and processed as described in the following Examples.
A PCR plate to be used for quantifying amplifiable DNA was prepared with three replicates at each target input level (i.e., ranging from 0 ng to 1,000 ng). In each instance, measured aliquots of an aqueous solution of bovine genomic DNA were added to individual wells of the plate, and then dried. […] The chamber was initially purged for 15 minutes with CDA. […] Finally, the chamber was purged for an additional 15 minutes with CDA. Each well containing treated sample next received an aliquot of liquid reagents needed to carry out PCR amplification reactions. These reagents included: a pair of unlabeled DNA primers capable of amplifying the template; nucleotide triphosphates; buffer and salts; a dual-labeled hydrolysis probe specific for the DNA amplification product; and a thermostable DNA polymerase having 5′-3′ exonuclease activity. Amplification reactions were carried out using procedures familiar to those of ordinary skill in the art, and the appearance of fluorescent signals monitored as a function of time in a real-time format.

E. coli [2] = test system: E. coli
Experimental: (§2) A 0.01 micron filter removed particulates from the gas stream. […] The water temperature was used to control the output of the humidifier. […] The furnace was used to keep the bacterial samples at temperature to prevent condensation. […] The boxed sections show the individual heat traced control zones for this experiment.
as §1

S. epi = test system: S. epi
Experimental: as §2, §1

bacterial samples = settings: visible mist or fog, droplets condensed onto the sample

OO [hydrogen peroxide gas, hydrogen peroxide]
Growth on tryptic soy agar plates after H202 treatment (bacterial slides) (E. coli [1]): No Growth
Decrease % (bovine genomic DNA; Input 1 ng DNA, 25° C.): 100%
Remaining % (bovine genomic DNA; Input 1 ng DNA, 25° C.): 0%
Calculated ng After Treatment (bovine genomic DNA; Input 1 ng DNA, H2O 2122 ppm, 25° C.): 0 ng
Average Decrease % (bovine genomic DNA; Input 1 ng DNA, 25° C.): 100.00%
Decrease % (bovine genomic DNA; Input 10 ng DNA, 25° C.): 98.55% and 99.28% and 94.5%
Average Decrease % (bovine genomic DNA; Input 10 ng DNA, 25° C.): 97.44%
Decrease % (bovine genomic DNA; Input 100 ng DNA, 25° C.): 99.19% and 99.92% and 99.978%
Average Decrease % (bovine genomic DNA; Input 100 ng DNA, 25° C.): 99.70%
Decrease % (bovine genomic DNA; Input 1000 ng DNA, 25° C.): 99.9957% and 99.9953% and 99.967%
Average Decrease % (bovine genomic DNA; Input 1000 ng DNA, 25° C.): 99.99%
Reduction of amplifiable DNA (bovine genomic DNA; sample containing the greatest amount of starting material): about 4 logs
Amplifiable DNA after treatment (bovine genomic DNA; sample containing the lowest amount of starting material): completely undetectable
CONCENTRATION (E. coli in device with H2O2) (E. coli [2]; hydrogen peroxide gas 30 minutes, average H2O2 output 561±27 ppm, ≥25° C., stock 2.5 × 10^7): NO GROWTH
Sterilization result in words (E. coli [2]; tests of FIGS. 32 and 33, 30 minutes H2O2 gas): completely sterilized
CONCENTRATION (S. epi in device with H2O2) (S. epi; 5 hour H2O2 exposure, average H2O2 output 518±14 ppm, stock 3.5 × 10^6): NO GROWTH
Sterilization result in words (S. epi; fifth experiment, 5 hour H2O2 exposure, 518±14 ppm): sterilized
CONCENTRATION (S. epi in device with H2O2) (S. epi; hydrogen peroxide gas 30 minutes, average H2O2 output 561±27 ppm, ≥25° C., stock 5.0 × 10^6, contamination believed): ~10^4 to 10^5 estimated
Effect on the number of viable organisms (bacterial samples): did not significantly reduce the number of viable organisms
